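In this assay, cells in 96-well plates receive the compound at five concentrations for 48 hours. Endpoints are linearly interpolated between the surrounding concentrations. Abbreviation: GI50, concentration required for 50% inhibition of growth. TGI: total growth inhibition.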
Key:
Test in all cases: NCI tumour cell line growth inhibition, 48 h; in the data active = GI50 below about 0.43 µM; inactive = the rest
RXF 393 renal = test system: RXF 393 renal
CCRF-CEM leukemia = test system: CCRF-CEM leukemia
HCC-2998 colon = test system: HCC-2998 colon
HT29 colon = test system: HT29 colon
MDA-MB-231 breast = test system: MDA-MB-231 breast
MOLT-4 leukemia = test system: MOLT-4 leukemia
OVCAR-8 ovarian = test system: OVCAR-8 ovarian
HL-60(TB) leukemia = test system: HL-60(TB) leukemia
SK-MEL-2 melanoma = test system: SK-MEL-2 melanoma
UACC-257 melanoma = test system: UACC-257 melanoma
SK-OV-3 ovarian = test system: SK-OV-3 ovarian
HOP-92 NSCLC = test system: HOP-92 NSCLC
HCT-116 colon = test system: HCT-116 colon
CAKI-1 renal = test system: CAKI-1 renal
SF-295 CNS = test system: SF-295 CNS
HS 578T breast = test system: HS 578T breast
SK-MEL-5 melanoma = test system: SK-MEL-5 melanoma
OVCAR-3 ovarian = test system: OVCAR-3 ovarian
MCF7 breast = test system: MCF7 breast
SR leukemia = test system: SR leukemia
COLO 205 colon = test system: COLO 205 colon
MDA-MB-468 breast = test system: MDA-MB-468 breast
786-0 renal = test system: 786-0 renal
PC-3 prostate = test system: PC-3 prostate
A498 renal = test system: A498 renal
TK-10 renal = test system: TK-10 renal
NCI-H23 lung = test system: NCI-H23 lung
LOX IMVI melanoma = test system: LOX IMVI melanoma
EKVX NSCLC = test system: EKVX NSCLC
M14 melanoma = test system: M14 melanoma
NCI-H460 lung = test system: NCI-H460 lung
SNB-75 CNS = test system: SNB-75 CNS
K-562 leukemia = test system: K-562 leukemia
NCI-H522 lung = test system: NCI-H522 lung
BT-549 breast = test system: BT-549 breast
T-47D breast = test system: T-47D breast
UO-31 renal = test system: UO-31 renal
MDA-MB-435 = test system: MDA-MB-435
SW-620 colon = test system: SW-620 colon
IGROV1 ovarian = test system: IGROV1 ovarian
U251 CNS = test system: U251 CNS
RPMI-8226 leukemia = test system: RPMI-8226 leukemia
HOP-62 NSCLC = test system: HOP-62 NSCLC
SF-539 CNS = test system: SF-539 CNS
SF-268 CNS = test system: SF-268 CNS
OVCAR-4 ovarian = test system: OVCAR-4 ovarian
MALME-3M melanoma = test system: MALME-3M melanoma
OVCAR-5 ovarian = test system: OVCAR-5 ovarian
SK-MEL-28 melanoma = test system: SK-MEL-28 melanoma
NCI-H226 lung = test system: NCI-H226 lung
KM12 colon = test system: KM12 colon
NCI/ADR-RES ovarian = test system: NCI/ADR-RES ovarian
DU-145 prostate = test system: DU-145 prostate
SN12C renal = test system: SN12C renal
SNB-19 CNS = test system: SNB-19 CNS
UACC-62 melanoma = test system: UACC-62 melanoma
A549 NSCLC = test system: A549 NSCLC
HCT-15 colon = test system: HCT-15 colon
ACHN renal = test system: ACHN renal

Cn1ncc2c(N)nc(Oc3ccccc3-c3ccccc3)nc21
30.5 µM: TGI (HL-60(TB) leukemia)
5.44 µM: TGI (MDA-MB-435)
41.4 µM: TGI (HS 578T breast)
36.7 µM: TGI (UACC-62 melanoma)
4.92 µM: TGI (MDA-MB-468 breast)
97.2 µM: TGI (NCI-H226 lung)
17.5 µM: TGI (NCI/ADR-RES ovarian)
46.3 µM: TGI (CCRF-CEM leukemia)
65.1 µM: TGI (OVCAR-8 ovarian)
7.03 µM: TGI (NCI-H522 lung)
> 100 µM: TGI (HCC-2998 colon) | TGI (MDA-MB-231 breast) | TGI (SK-MEL-2 melanoma) | TGI (UACC-257 melanoma) | TGI (SK-OV-3 ovarian) | TGI (HOP-92 NSCLC) | TGI (HCT-116 colon) | TGI (CAKI-1 renal) | TGI (SF-295 CNS) | TGI (OVCAR-3 ovarian) | TGI (MCF7 breast) | TGI (SR leukemia) | TGI (COLO 205 colon) | TGI (786-0 renal) | TGI (PC-3 prostate) | TGI (A498 renal) | TGI (TK-10 renal) | TGI (NCI-H23 lung) | TGI (LOX IMVI melanoma) | TGI (EKVX NSCLC) | TGI (M14 melanoma) | TGI (NCI-H460 lung) | TGI (K-562 leukemia) | TGI (T-47D breast) | TGI (UO-31 renal) | TGI (SW-620 colon) | TGI (IGROV1 ovarian) | TGI (U251 CNS) | TGI (HOP-62 NSCLC) | TGI (SF-539 CNS) | TGI (SF-268 CNS) | TGI (OVCAR-4 ovarian) | TGI (MALME-3M melanoma) | TGI (OVCAR-5 ovarian) | TGI (SK-MEL-28 melanoma) | TGI (KM12 colon) | TGI (DU-145 prostate) | TGI (SN12C renal) | TGI (SNB-19 CNS) | TGI (A549 NSCLC) | TGI (HCT-15 colon) | TGI (ACHN renal)
37.6 µM: TGI (BT-549 breast)
inactive: GI50 (RXF 393 renal) 10.3 µM | GI50 (CCRF-CEM leukemia) 3.73 µM | GI50 (HCC-2998 colon) 10.2 µM | GI50 (HT29 colon) 3.4 µM | GI50 (MDA-MB-231 breast) 4.54 µM | GI50 (MOLT-4 leukemia) 4.22 µM | GI50 (OVCAR-8 ovarian) 13.1 µM | GI50 (HL-60(TB) leukemia) 3.93 µM | GI50 (SK-MEL-2 melanoma) 4.36 µM | GI50 (UACC-257 melanoma) 8.36 µM | GI50 (SK-OV-3 ovarian) 30.3 µM | GI50 (HOP-92 NSCLC) 14.3 µM | GI50 (HCT-116 colon) 4.53 µM | GI50 (CAKI-1 renal) 7.72 µM | GI50 (SF-295 CNS) 6.11 µM | GI50 (HS 578T breast) 5.73 µM | GI50 (SK-MEL-5 melanoma) 3.64 µM | GI50 (OVCAR-3 ovarian) 6.61 µM | GI50 (MCF7 breast) 3.66 µM | GI50 (SR leukemia) 2.91 µM | GI50 (COLO 205 colon) 7.05 µM | GI50 (MDA-MB-468 breast) 1.74 µM | GI50 (786-0 renal) 26.4 µM | GI50 (PC-3 prostate) 13.3 µM | GI50 (A498 renal) 62.2 µM | GI50 (TK-10 renal) 19.7 µM | GI50 (NCI-H23 lung) 8.54 µM | GI50 (LOX IMVI melanoma) 7.01 µM | GI50 (EKVX NSCLC) 9.41 µM | GI50 (M14 melanoma) 4.54 µM | GI50 (NCI-H460 lung) 3.87 µM | GI50 (SNB-75 CNS) 3.75 µM | GI50 (K-562 leukemia) 3.44 µM | GI50 (NCI-H522 lung) 2.21 µM | GI50 (BT-549 breast) 4.28 µM | GI50 (T-47D breast) 4.91 µM | GI50 (UO-31 renal) 11.4 µM | GI50 (MDA-MB-435) 1.99 µM | GI50 (SW-620 colon) 3.89 µM | GI50 (IGROV1 ovarian) 8.02 µM | GI50 (U251 CNS) 4.77 µM | GI50 (RPMI-8226 leukemia) 3.94 µM | GI50 (HOP-62 NSCLC) 32 µM | GI50 (SF-539 CNS) 7.68 µM | GI50 (SF-268 CNS) 23.7 µM | GI50 (OVCAR-4 ovarian) 19.3 µM | GI50 (MALME-3M melanoma) 4.3 µM | GI50 (OVCAR-5 ovarian) 6.5 µM | GI50 (SK-MEL-28 melanoma) 8.4 µM | GI50 (NCI-H226 lung) 6.65 µM | GI50 (KM12 colon) 4.82 µM | GI50 (NCI/ADR-RES ovarian) 3.26 µM | GI50 (DU-145 prostate) 32.3 µM | GI50 (SN12C renal) 7.43 µM | GI50 (SNB-19 CNS) 29.3 µM | GI50 (UACC-62 melanoma) 4.1 µM | GI50 (A549 NSCLC) 6.74 µM | GI50 (HCT-15 colon) 3.79 µM | GI50 (ACHN renal) 20.6 µM
34.7 µM: TGI (MOLT-4 leukemia)
34.2 µM: TGI (SNB-75 CNS)
18.2 µM: TGI (SK-MEL-5 melanoma)
47 µM: TGI (RXF 393 renal)
34.6 µM: TGI (HT29 colon)
27.4 µM: TGI (RPMI-8226 leukemia)

— PubChem BioAssay (NCI)
